Paper PMC7265341, “Quantifying CDK inhibitor selectivity in live cells” (Nature Communications, 2020)
“And” between values parts separate entries of the source, which are not always exact repeats. Identical values can stand only once.

Key:
Type in all cases: binding
[1] = biological target: CDK2 (Homo sapiens, UniProt P24941); experiment: Intracellular residence time by cellular washout, CDK2; conditions: for CDK2 occupancy after compound washout (%): Panel B;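 on all read-outs here: NanoBRET live-cell washout assay after 2 h compound pretreatment at 37 °C, rising energy-transfer probe signal tracks loss of CDK2 engagement, compared against DMSO vehicle cells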
[2] = biological target: T1, CDK7 (Homo sapiens, UniProt P50613); experiment: Intracellular residence time by cellular washout, CDK7; conditions: for CDK7: Panel B
Experimental: However, residence times for this and many of the other CDKi’s in our panel have not been reported in cell-free or cellular contexts. […] This condition was selected to ensure adequate target occupancy prior to compound washout. Residence time was then evaluated by a rapid compound washout procedure, followed by addition of energy transfer probe 1. Under these conditions, the rate of the energy transfer signal increase serves as a direct proxy for the loss of the target-CDKi interaction[18],[56],[57].
Residence time was qualitatively assessed via a cellular washout approach, where delayed energy probe association is used as an indirect measurement for the durability of target/compound engagement. […] After 2 h of incubation at 37 °C, the medium was aspirated from the cells and replaced with fresh OptiMEM containing NanoBRET NanoGlo Substrate and Extracellular NanoLuc Inhibitor. […] Occupancy values were plotted as a function of time.
Supplementary Figure 22. […] Residence […]
time was qualitatively assessed by cellular washout as described in the method details and compared to association of energy transfer probe in cells treated with DMSO vehicle. […]
engagement at CDK6 and kinetic selectivity for CDK6 compared to CDK2 and CDK7. BRET ratios were normalized between the maximum BRET value vs BRET value in the absence of tracer. Kinetic traces and individual points are mean of 3 independent experiments ± S.E.M (n = 3). Source data are provided as a […]

[3] = biological target: T1, CDK7; experiment: Real-time analysis of engagement (kobs, IC50 vs time) in live cells, CDK7
Experimental: Cells were pre-equilibrated with energy transfer probe for 40 min prior to addition of […]
intervals at 25 °C (temperature reduced to avoid evaporation of cell culture medium). To quantify […]
vs time. Apparent association rate was also plotted as k obs vs [RGB286638], where kobs was determined using the one phase association equation (Supplementary Equation 2) in graphpad prism.
Y=Y0 + (Plateau-Y0)*(1-e-K*X) (2) where Y = mBRET ratio, X = time, and K = the observed rate constant ( kobs). […]
CDK7 (left) and CDK6 (right) to generate kobs. Kinetic traces were collected in a single biological experiment (n = 1), where individual data points represent the mean ± S.D of technical triplicates (n = 3).
(B) kobs values (n = 1) were generated from panel A by fitting Supplementary Equation 2, and were then […]
collected at each timepoint represent technical singlicates (n = 1 ). Source data are provided as a Source

[4] = Time (Min) 32.9743, listed as RGB-286638
[5] = LOG10([THZ1]) (LOG10(µM)) 0.346787
[6] = LOG10([THZ1]) (LOG10(µM)) 0.823909
[7] = LOG10([THZ1]) (LOG10(µM)) 1.30103, Replicates 1 and 2
[8] = LOG10([THZ1]) (LOG10(µM)) -0.60746
[9] = LOG10([THZ1]) (LOG10(µM)) -1.08458
[10] = LOG10([THZ1]) (LOG10(µM)) -1.5617
[11] = LOG10([THZ1]) (LOG10(µM)) -2.03882
[12] = LOG10([THZ1]) (LOG10(µM)) -2.51594
[13] = LOG10([THZ1]) (LOG10(µM)) -2.99306
[14] = LOG10([THZ1]) (LOG10(µM)) -3.47018
[15] = LOG10([THZ1]) (LOG10(µM)) -3.9473

T1 sequence (P50613 whole entry): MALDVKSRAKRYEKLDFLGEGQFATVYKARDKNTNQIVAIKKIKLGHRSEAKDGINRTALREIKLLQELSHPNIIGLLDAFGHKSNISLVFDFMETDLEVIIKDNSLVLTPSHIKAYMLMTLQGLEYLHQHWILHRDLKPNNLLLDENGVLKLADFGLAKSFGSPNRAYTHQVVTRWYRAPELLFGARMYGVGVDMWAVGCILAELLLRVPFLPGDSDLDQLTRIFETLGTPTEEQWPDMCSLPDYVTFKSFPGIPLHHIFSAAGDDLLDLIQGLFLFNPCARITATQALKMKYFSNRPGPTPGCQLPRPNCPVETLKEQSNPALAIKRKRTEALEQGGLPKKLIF

`COCCN1CCN(Cc2ccc(-c3n[nH]c4c3C(=O)c3c(NC(=O)NN5CCOCC5)cccc3-4)cc2)CC1` [RGB286638] was tested, and the “CDK2 occupancy after compound washout (%)” value (from here on “CDK2 occupancy … (%)”) ([1]; Time (Min) 0) was 86.242 and 90.073 and 94.3307, the “CDK2 occupancy … (%)” value ([1]; Time (Min) 2.97013) was 79.5117 and 80.9002 and 88.1102 and the “CDK2 occupancy … (%)” value ([1]; Time (Min) 5.97045) was 73.673 and 73.2847 and 82.0472. The “CDK2 occupancy … (%)” value ([1]; Time (Min) 8.97078) was 68.5138 and 66.4964 and 75.5906, the “CDK2 occupancy … (%)” value ([1]; Time (Min) 11.9714) was 64.0977 and 61.0706 and 70.5249 and the “CDK2 occupancy … (%)” value ([1]; Time (Min) 14.9718) was 59.9363 and 55.5961 and 65.5381. The “CDK2 occupancy … (%)” value ([1]; Time (Min) 17.9723) was 56.1571 and 50.7299 and 61.601, the “CDK2 occupancy … (%)” value ([1]; Time (Min) 20.9723) was 52.6752 and 47.2263 and 57.3753 and the “CDK2 occupancy … (%)” value ([1]; Time (Min) 23.9731) was 49.9788 and 43.4307 and 53.9895. For the same compound, the “CDK2 occupancy … (%)” value ([1]; Time (Min) 26.9737) was 47.0913 and 40.219 and 51.2336, the “CDK2 occupancy … (%)” value ([1]; Time (Min) 29.9742) was 44.5011 and 36.91 and 47.9003 and the “CDK2 occupancy … (%)” value [1, 4] was 42.1444 and 34.1363 and 45.2756. For the same compound, the “CDK2 occupancy … (%)” value ([1]; Time (Min) 35.9749) was 39.724 and 31.4599 and 43.3596, the “CDK2 occupancy … (%)” value ([1]; Time (Min) 38.9753) was 37.5584 and 29.5864 and 40.3675 and the “CDK2 occupancy … (%)” value ([1]; Time (Min) 41.9753) was 36.0722 and 27.129 and 39.4488. The “CDK2 occupancy … (%)” value ([1]; Time (Min) 44.9758) was 33.3121 and 25.1582 and 36.6667, the “CDK2 occupancy … (%)” value ([1]; Time (Min) 47.9761) was 31.6136 and 23.6253 and 35.2756 and the “CDK2 occupancy … (%)” value ([1]; Time (Min) 50.9766) was 29.9788 and 21.8978 and 32.9134. The “CDK2 occupancy … (%)” value ([1]; Time (Min) 53.9771) was 27.983 and 20.1946 and 30.7874, the “CDK2 occupancy … (%)” value ([1]; Time (Min) 56.9772) was 27.3885 and 18.0049 and 30.0525 and the “CDK2 occupancy … (%)” value ([1]; Time (Min) 59.9777) was 25.9023 and 17.2749 and 28.5564. The “CDK2 occupancy … (%)” value ([1]; Time (Min) 62.9781) was 24.4161 and 15.8151 and 27.3753, the “CDK2 occupancy … (%)” value ([1]; Time (Min) 65.9785) was 22.9299 and 14.3552 and 26.2992 and the “CDK2 occupancy … (%)” value ([1]; Time (Min) 68.9792) was 21.4437 and 13.6253 and 25.1706. The “CDK2 occupancy … (%)” value ([1]; Time (Min) 71.9792) was 20.5945 and 12.1655 and 24.252, the “CDK2 occupancy after 2 h of analysis following compound washout” value ([1]; live cells, probe 1 at 1 µM) was “fully dissociated” and the CDK7 ([2]; Time (Min) 2.97013) was 63.5317 and 37.2109 and 59.6726. For the same compound, the CDK7 ([2]; Time (Min) 5.97045) was 70.1207 and 47.8912 and 70.0893, the CDK7 ([2]; Time (Min) 8.97078) was 76.2242 and 55.3742 and 82.1429 and the CDK7 ([2]; Time (Min) 11.9714) was 80.0388 and 60.068 and 80.8036. The CDK7 ([2]; Time (Min) 14.9718) was 83.1599 and 63.8775 and 88.244, the CDK7 ([2]; Time (Min) 17.9723) was 84.339 and 67.0068 and 93.006 and the CDK7 ([2]; Time (Min) 20.9723) was 86.0036 and 69.5238 and 91.8155. For the same compound, the CDK7 ([2]; Time (Min) 23.9731) was 87.5988 and 70.4762 and 91.0714, the CDK7 ([2]; Time (Min) 26.9737) was 87.252 and 72.2449 and 92.2619 and the CDK7 ([2]; Time (Min) 29.9742) was 89.6796 and 72.7211 and 93.4524. For the same compound, the CDK7 ([2]; Time (Min) 32.9743) was 74.1497, the CDK7 [2, 4] was 87.9456 and 99.1071 and the CDK7 ([2]; Time (Min) 35.9749) was 89.8183 and 75.5102 and 100.298. For the same compound, the CDK7 ([2]; Time (Min) 38.9753) was 90.3731 and 75.102 and 97.619, the CDK7 ([2]; Time (Min) 41.9753) was 91.4829 and the CDK7 ([2]; Time (Min) 236.996) was 85.5181 and 68.5714 and 62.6488. For the same compound, the CDK7 ([2]; Time (Min) 239.996) was 81.0792 and 69.4558 and 75.1488, the CDK7 ([2]; Time (Min) 242.996) was 82.6744 and 69.7959 and 76.3393 and the CDK7 ([2]; Time (Min) 245.996) was 82.397 and 69.0476 and 68.4524. The CDK7 ([2]; Time (Min) 248.996) was 81.4954 and 70.068 and 77.0833, the CDK7 ([2]; Time (Min) 251.996) was 82.3276 and 68.6395 and 82.7381 and the CDK7 ([2]; Time (Min) 254.996) was 80.5243 and 67.551 and 74.1071. The CDK7 ([2]; Time (Min) 257.996) was 85.2407 and 70.4082 and 62.2024, the CDK7 ([2]; Time (Min) 260.996) was 83.0212 and 68.0272 and 80.6548 and the CDK7 ([2]; Time (Min) 263.996) was 83.8535 and 68.6395 and 70.6845. The CDK7 ([2]; Time (Min) 266.996) was 68.0272, the CDK7 ([2]; Time (Min) 266.996, listed as RGB-286638) was 83.7842 and 91.369 and the CDK7 ([2]; Time (Min) 269.996) was 81.2873 and 68.9116 and 72.9167. For the same compound, the CDK7 ([2]; Time (Min) 272.996) was 80.8711 and 70.3401 and 74.8512, the CDK7 ([2]; Time (Min) 275.996) was 78.9985 and 67.0748 and 80.0595 and the CDK7 ([2]; Time (Min) 278.996) was 80.5243 and 67.8231 and 80.6548. For the same compound, the CDK7 ([2]; Time (Min) 281.996) was 80.1776 and 69.4558 and 75, the CDK7 ([2]; Time (Min) 284.996) was 78.513 and 68.5034 and 75.2976 and the CDK7 ([2]; Time (Min) 287.996) was 79.8308 and 68.2993 and 76.6369. The CDK7 ([2]; Time (Min) 290.996) was 80.5243 and 69.932 and 91.2202, the CDK7 ([2]; Time (Min) 293.996) was 78.9985 and 67.9592 and 82.2917 and the “CDK7 occupancy after 2 h of analysis following compound washout” value ([2]; live cells, probe 1 at 1 µM) was “fully dissociated”.
`CN(C)C/C=C/C(=O)Nc1ccc(C(=O)Nc2cccc(Nc3ncc(Cl)c(-c4c[nH]c5ccccc45)n3)c2)cc1` [THZ1] was tested, and the “mBRET values, 2h” value [3, 5] was 8.56 mBRET and 5.32 mBRET, the “mBRET values, 2h” value [3, 6] was 7.68 mBRET and 4.86 mBRET and the “mBRET values, 2h” value [3, 7] was 6.67 mBRET and 4.16 mBRET. For the same compound, the “mBRET values, 2h” value [3, 8] was 15 mBRET and 7.79 mBRET, the “mBRET values, 2h” value [3, 9] was 16.83 mBRET and 10.6 mBRET and the “mBRET values, 2h” value [3, 10] was 18.12 mBRET and 11.5 mBRET. The “mBRET values, 2h” value [3, 11] was 20.68 mBRET and 12.8 mBRET, the “mBRET values, 2h” value [3, 12] was 20.88 mBRET and 13.4 mBRET and the “mBRET values, 2h” value [3, 13] was 20.48 mBRET and 13.4 mBRET. For the same compound, the “mBRET values, 2h” value [3, 14] was 19.82 mBRET and 13.5 mBRET, the “mBRET values, 2h” value [3, 15] was 20.06 mBRET and 13.5 mBRET and the “mBRET values, 6h” value [3, 5] was 7.65 mBRET and 4.87 mBRET. The “mBRET values, 6h” value [3, 6] was 7.21 mBRET and 4.56 mBRET, the “mBRET values, 6h” value [3, 7] was 6.77 mBRET and 4.18 mBRET and the “mBRET values, 6h” value ([3]; LOG10([THZ1]) (LOG10(µM)) -0.13033) was 8.08 mBRET and 4.82 mBRET. The “mBRET values, 6h” value [3, 8] was 8.54 mBRET and 5.25 mBRET, the “mBRET values, 6h” value [3, 9] was 9.55 mBRET and 5.83 mBRET and the “mBRET values, 6h” value [3, 10] was 13.84 mBRET and 8.78 mBRET. For the same compound, the “mBRET values, 6h” value [3, 11] was 18.55 mBRET and 12 mBRET, the “mBRET values, 6h” value [3, 12] was 19.6 mBRET and 13.1 mBRET and the “mBRET values, 6h” value [3, 13] was 19.14 mBRET and 12.9 mBRET. For the same compound, the “mBRET values, 6h” value [3, 14] was 18.6 mBRET and 13.6 mBRET and the “mBRET values, 6h” value [3, 15] was 19.78 mBRET and 13.4 mBRET.
